# The supplement of paper PMC10307832
# Assays:
# Experiment in all cases: relative viability (nuclei count vs DMSO), 5 days (fraction); higher = more cells survive
# CAL-12T = system: CAL-12T
# Method in brief: (§1)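 Relative viability divides the nuclei count in treated wells by that in vehicle wells. Lung cancer cell lines were seeded in 1536-well plates, dosed by pin tool the next day, and fixed and stained after 5 days in one step with final 0.05% Triton X-100, 1% formaldehyde and 1 ug/ml Hoechst. Dosing was a single drug or a fixed anchor-drug dose plus five library-drug doses (not always all listed) in √10 steps, and values are medians of duplicate plates imaged at 4×.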
# NCI-H2085 = system: NCI-H2085
# Method in brief: as §1
# NCI-H2170 = system: NCI-H2170
# Method in brief: as §1
# NCI-H1651 = system: NCI-H1651
# Method in brief: as §1
# SK-MES-1 = system: SK-MES-1
# Method in brief: as §1
# NCI-H1355 = system: NCI-H1355
# Method in brief: as §1
# BEN = system: BEN
# Method in brief: as §1
# NCI-H2087 = system: NCI-H2087
# Method in brief: as §1
# NCI-H520 = system: NCI-H520
# Method in brief: as §1
# HCC-44 = system: HCC-44
# Method in brief: as §1
# LXF-289 = system: LXF-289
# Method in brief: as §1
# NCI-H1666 = system: NCI-H1666
# Method in brief: as §1
# NCI-H1755 = system: NCI-H1755
# Method in brief: as §1
# NCI-H460 = system: NCI-H460
# Method in brief: as §1
# LU99A = system: LU99A
# Method in brief: as §1
# PC-14 = system: PC-14
# Method in brief: as §1
# NCI-H1993 = system: NCI-H1993
# Method in brief: as §1
# COR-L23 = system: COR-L23
# Method in brief: as §1
# NCI-H1563 = system: NCI-H1563
# Method in brief: as §1
# NCI-H1437 = system: NCI-H1437
# Method in brief: as §1
# NCI-H1650 = system: NCI-H1650
# Method in brief: as §1
# NCI-H1792 = system: NCI-H1792
# Method in brief: as §1
structure (smiles),measurement,setting,value
Cc1cn(-c2cc(NC(=O)c3ccc(C)c(Nc4nccc(-c5cccnc5)n4)c3)cc(C(F)(F)F)c2)cn1 [Nilotinib] + C[C@@H](Oc1cc(-c2cnn(C3CCNCC3)c2)cnc1N)c1c(Cl)ccc(F)c1Cl [Crizotinib] (partner 1 µM),relative viability,CAL-12T; first compound 0.003162 µM,0.519
same,relative viability,CAL-12T; first compound 0.01 µM,0.902
same,relative viability,CAL-12T; first compound 0.03162 µM,0.345
same,relative viability,CAL-12T; first compound 0.1 µM,0.6
same,relative viability,NCI-H2085; first compound 0.001 µM,0.982
same,relative viability,NCI-H2085; first compound 0.003162 µM,0.895
same,relative viability,NCI-H2085; first compound 0.01 µM,0.971
same,relative viability,NCI-H2085; first compound 0.03162 µM,0.721
same,relative viability,NCI-H2085; first compound 0.1 µM,0.884
same,relative viability,NCI-H2170; first compound 0.001 µM,1.12
same,relative viability,NCI-H2170; first compound 0.003162 µM,1.21
same,relative viability,NCI-H2170; first compound 0.01 µM,1.61
same,relative viability,NCI-H2170; first compound 0.03162 µM,0.915
same,relative viability,NCI-H2170; first compound 0.1 µM,1.19
same,relative viability,NCI-H1651; first compound 0.001 µM,0.853
same,relative viability,NCI-H1651; first compound 0.003162 µM,0.986
same,relative viability,NCI-H1651; first compound 0.01 µM,1
same,relative viability,NCI-H1651; first compound 0.03162 µM,0.838
same,relative viability,NCI-H1651; first compound 0.1 µM,0.816
same,relative viability,SK-MES-1; first compound 0.003162 µM,1.09
same,relative viability,SK-MES-1; first compound 0.01 µM,1.06
same,relative viability,SK-MES-1; first compound 0.03162 µM,0.994
same,relative viability,SK-MES-1; first compound 0.1 µM,0.982
same,relative viability,NCI-H1355; first compound 0.001 µM,1.05
same,relative viability,NCI-H1355; first compound 0.003162 µM,1.15
same,relative viability,NCI-H1355; first compound 0.01 µM,1.38
same,relative viability,NCI-H1355; first compound 0.03162 µM,0.909
same,relative viability,NCI-H1355; first compound 0.1 µM,1.09
same,relative viability,BEN; first compound 0.001 µM,0.731
same,relative viability,BEN; first compound 0.003162 µM,0.978
same,relative viability,BEN; first compound 0.01 µM,1.21
same,relative viability,BEN; first compound 0.1 µM,0.971
same,relative viability,NCI-H2087; first compound 0.001 µM,0.626
same,relative viability,NCI-H2087; first compound 0.003162 µM,0.806
same,relative viability,NCI-H2087; first compound 0.01 µM,0.947
same,relative viability,NCI-H2087; first compound 0.03162 µM,0.702
same,relative viability,NCI-H2087; first compound 0.1 µM,0.667
same,relative viability,NCI-H520; first compound 0.001 µM,0.656
same,relative viability,NCI-H520; first compound 0.01 µM,0.866
same,relative viability,NCI-H520; first compound 0.03162 µM,0.483
same,relative viability,NCI-H520; first compound 0.1 µM,0.678
same,relative viability,HCC-44; first compound 0.001 µM,0.799
same,relative viability,HCC-44; first compound 0.003162 µM,0.978
same,relative viability,HCC-44; first compound 0.01 µM,1.01
same,relative viability,HCC-44; first compound 0.03162 µM,0.717
same,relative viability,HCC-44; first compound 0.1 µM,0.754
same,relative viability,LXF-289; first compound 0.001 µM,0.806
same,relative viability,LXF-289; first compound 0.003162 µM,0.885
same,relative viability,LXF-289; first compound 0.01 µM,0.923
same,relative viability,LXF-289; first compound 0.03162 µM,0.731
same,relative viability,LXF-289; first compound 0.1 µM,0.765
same,relative viability,NCI-H1666; first compound 0.001 µM,0.826
same,relative viability,NCI-H1666; first compound 0.003162 µM,0.983
same,relative viability,NCI-H1666; first compound 0.01 µM,0.964
same,relative viability,NCI-H1666; first compound 0.03162 µM,0.936
same,relative viability,NCI-H1666; first compound 0.1 µM,1.11
same,relative viability,NCI-H1755; first compound 0.001 µM,0.778
same,relative viability,NCI-H1755; first compound 0.003162 µM,0.962
same,relative viability,NCI-H1755; first compound 0.01 µM,1.2
same,relative viability,NCI-H1755; first compound 0.03162 µM,0.666
same,relative viability,NCI-H1755; first compound 0.1 µM,0.745
same,relative viability,NCI-H460; first compound 0.001 µM,0.752
same,relative viability,NCI-H460; first compound 0.003162 µM,1.06
same,relative viability,NCI-H460; first compound 0.01 µM,1.56
same,relative viability,NCI-H460; first compound 0.03162 µM,0.245
same,relative viability,NCI-H460; first compound 0.1 µM,0.901
same,relative viability,LU99A; first compound 0.001 µM,0.542
same,relative viability,LU99A; first compound 0.003162 µM,0.545
same,relative viability,LU99A; first compound 0.01 µM,0.629
same,relative viability,LU99A; first compound 0.03162 µM,0.429
same,relative viability,LU99A; first compound 0.1 µM,0.343
same,relative viability,PC-14; first compound 0.001 µM,0.871
same,relative viability,PC-14; first compound 0.003162 µM,0.941
same,relative viability,PC-14; first compound 0.01 µM,1.11
same,relative viability,PC-14; first compound 0.03162 µM,0.861
same,relative viability,PC-14; first compound 0.1 µM,0.945
same,relative viability,NCI-H1993; first compound 0.001 µM,0.998
same,relative viability,NCI-H1993; first compound 0.003162 µM,0.838
same,relative viability,NCI-H1993; first compound 0.01 µM,0.994
same,relative viability,NCI-H1993; first compound 0.03162 µM,0.762
same,relative viability,NCI-H1993; first compound 0.1 µM,0.887
same,relative viability,COR-L23; first compound 0.001 µM,0.601
same,relative viability,COR-L23; first compound 0.003162 µM,0.625
same,relative viability,COR-L23; first compound 0.01 µM,0.848
same,relative viability,COR-L23; first compound 0.03162 µM,0.465
same,relative viability,COR-L23; first compound 0.1 µM,0.625
same,relative viability,NCI-H1563; first compound 0.001 µM,0.772
same,relative viability,NCI-H1563; first compound 0.003162 µM,0.856
same,relative viability,NCI-H1563; first compound 0.01 µM,0.757
same,relative viability,NCI-H1563; first compound 0.03162 µM,0.914
same,relative viability,NCI-H1563; first compound 0.1 µM,0.739
same,relative viability,NCI-H1437; first compound 0.001 µM,0.789
same,relative viability,NCI-H1437; first compound 0.003162 µM,1.25
same,relative viability,NCI-H1437; first compound 0.01 µM,1.13
same,relative viability,NCI-H1437; first compound 0.03162 µM,0.705
same,relative viability,NCI-H1437; first compound 0.1 µM,0.866
same,relative viability,NCI-H1650; first compound 0.001 µM,1.07
same,relative viability,NCI-H1650; first compound 0.003162 µM,1.1
same,relative viability,NCI-H1650; first compound 0.01 µM,0.998
same,relative viability,NCI-H1650; first compound 0.03162 µM,0.777
same,relative viability,NCI-H1650; first compound 0.1 µM,0.87
same,relative viability,NCI-H1792; first compound 0.001 µM,0.967
same,relative viability,NCI-H1792; first compound 0.01 µM,1.15
same,relative viability,NCI-H1792; first compound 0.1 µM,1.16
